# Results published in EP0300073A1 (priority 1987, dated 1989).
# What was measured:
# [1] = test system: gram negative bacilli; settings: cited from earlier work
# [2] = test system: AIDS; assay: clinical use in AIDS patients (case history, fusidic acid added to the therapeutic regimen); type: in vivo, human
# Method: Since it is known that fusidic acid can penetrate phagocytic cells and kill intracellular bacteria, fusidic acid was administered to AIDS patients with opportunistic infections in the hope that it might assist other antibiotics in combatting these infections. […] The present invention is based on this unexpected finding.
# The patient, a person with a past history of hepatitis (HBsAG positive) and recurrent seborrhoic dermatitis was well until 1984 when they consulted a physician since they were suffering from lethargy, fever and weight loss. […] They remained stable with no further deterioration until 1986 when they suffered further weight loss and diarrhoea. […] Mycobacterium hominis was grown from both the stool and the blood following the detection of acid fast bacilli in a lymph node biopsy. The patient was given isoniazid, ethambutol and rifampicin as well as antiparasitic and local antifungal therapy. After six weeks of treatment there was no improvement with respect to their symptoms and they continued to lose weight (16 kg since admission). […] (orally) was added to their regimen. Two weeks following commencement they became afebrile, began to put on weight and was able to undergo a transurethral prostectomy, following which they returned to work and has been well since. Two months later they had increased their weight by 10 kg.
# [3] = test system: HIV prototype isolate CBL-1; assay: in vitro test for anti-HIV activity: prevention of infection of a CD4 positive cell line; type: cell-based; settings: Human immunodeficiency virus 1, read-out: concentration able to inhibit the HIV prototype isolate CBL-1 from infecting the CD4 positive cell line
# From the text: (§1) In the in vitro test for anti-HIV activity, a CD4 positive cell line was used.
# [4] = test system: RF; assay: as above; type: cell-based; settings: Human immunodeficiency virus 1, isolate RF, read-out: concentration required to prevent infection of the CD4 positive cell line
# From the text: as §1
# [5] = test system: rhinovirus; settings: cited from earlier work
# [6] = test system: fungi; settings: cited from earlier work
# [7] = test system: Coxsackie virus A21; settings: cited from earlier work
smiles,measurement,setting,value
CC(=O)O[C@H]1C[C@@]2(C)[C@@H](C[C@@H](O)[C@H]3[C@@]4(C)CC[C@@H](O)[C@@H](C)[C@@H]4CC[C@@]32C)/C1=C(\CCC=C(C)C)C(=O)O [fusidic acid],activity against gram negative bacilli,[1],weak activity
same,general condition of AIDS patients,"[2]; AIDS patients with opportunistic infections, added to the therapeutic regimen",remarkable improvement
same,fever status,"[2]; one AIDS patient, 500 mg t.d.s. orally added to isoniazid, ethambutol, rifampicin, antiparasitic and antifungal therapy, two weeks following commencement",afebrile
same,weight increase,"[2]; one AIDS patient, 500 mg t.d.s. orally added to regimen, two months later",10 kg
same,minimal effective concentration,[3],50 µg/mL
same,minimal effective concentration,[4],100 µg/mL
same,in vitro antiviral effect against rhinovirus,[5],some in vitro antiviral effect
same,activity against fungi,[6],weak activity
same,in vitro antiviral effect against Coxsackie virus A21,[7],some in vitro antiviral effect
